Where no end group is shown, it is not given here.

Data set [1] is described as follows: Nasal administration of insulin with peptides of SEQ ID NOs:1 to 6 (Example 5). The note with it: for AAC: blood glucose reduction. An excerpt: The prepared solutions were subjected to the evaluation in the same manner as in Example 1.
A short description of data set [2]: Nasal administration of insulin with peptide to rats (Example 1). The format is in vivo, rat. To be noted: male SD rats, insulin 10 IU/kg with 0.5 mM peptide or insulin only.
Method: (§1) Male SD rats having a body weight of about 200 g were fasted for 24 hours and anesthetized by intraperitoneal injection of 50 mg/kg of pentobarbital, followed by incision of the cervical part to expose trachea. […] The tip of the tube to be inserted into the choanae was preliminarily tightly sealed with absorbent cotton and an adhesive. To prevent leakage of the drug solution, the nasopalatine duct in maxilla opening into the oral cavity was closed with a synthetic adhesive (Aron Alpha A; manufactured by Daiichi Sankyo Company, Limited).
A short description of data set [3]: Nasal administration of insulin, dependency on peptide concentration (Example 2). To be noted: rats, only insulin, no peptide.
Method: as §1
Setting [4] is: rats, nasal, insulin 1 IU/kg with 0.5 mM L-amino acid peptide or no peptide.
[5] abbreviates: blood insulin, rats, nasal, insulin 1 IU/kg with 0.5 mM L-amino acid peptide or no peptide.
The mark [6] stands for this setting: male, SD, rat, in vivo, inhaled or intranasal.

Regarding `CC[C@H](C)[C@H](NC(=O)[C@H](CCCCN)NC(=O)[C@@H](NC(=O)[C@H](CCC(N)=O)NC(=O)[C@@H](N)CCCNC(=N)N)[C@@H](C)CC)C(=O)N[C@@H](Cc1c[nH]c2ccccc12)C(=O)N[C@@H](Cc1ccccc1)C(=O)N[C@@H](CCC(N)=O)C(=O)N[C@@H](CC(N)=O)C(=O)N[C@@H](CCCNC(=N)N)C(=O)N[C@@H](CCCNC(=N)N)C(=O)N[C@@H](CCSC)C(=O)N[C@@H](CCCCN)C(=O)N[C@@H](Cc1c[nH]c2ccccc12)C(=O)N[C@@H](CCCCN)C(=O)N[C@@H](CCCCN)C(=O)N[C@@H](CCCNC(=N)N)C(=O)N[C@@H](CCCNC(=N)N)C(=O)N[C@@H](CCCNC(=N)N)C(=O)N[C@@H](CCCNC(=N)N)C(=O)O` [SEQ ID NO: 6], in data set [1] (setting [4]), the AAC came to 14.4 % glu. reduc. h and the “PA (pharmaceutical availability, based on changes in blood glucose level)” value came to 15.7%. In data set [1] (setting [5]), this compound gave an AUC of 55.2 μU · h./mL and a Cmax of 187.3 μU/mL.

Consider KKWKMRRNQFWIKIQR-OH [SEQ ID NO: 2], for which, in data set [1] (setting [4]), the AAC is listed as 13.5 % glu. reduc. h and the “PA (pharmaceutical availability, based on changes in blood glucose level)” value was determined as 14.7%. In addition, in data set [1] (setting [6]), the Tmax is 11.7 min.

Regarding KQIKIWFQNKKMKWKK-OH [SEQ ID NO: 4], in data set [1] (setting [4]), the AAC turned out to be 10.3 % glu. reduc. h and the “PA (pharmaceutical availability, based on changes in blood glucose level)” value worked out at 11.2%. In data set [1] (setting [6]), the Tmax amounted to 11.3 min.

For KQIRIWFQNKKMRWRR-OH [SEQ ID NO: 5], in data set [1] (setting [4]), the AAC was 21.5 % glu. reduc. h and the “PA (pharmaceutical availability, based on changes in blood glucose level)” value worked out at 23.4%. Also, the Tmax in data set [1] (setting [6]) is given as 16.0 min.

In the case of RQIRIWFQNRRMRWRR-OH [SEQ ID NO: 3], in data set [1] (setting [4]), the AAC is reported as 17.1 % glu. reduc. h and the “PA (pharmaceutical availability, based on changes in blood glucose level)” value turned out to be 18.6%. For the same compound, the Tmax in data set [1] (setting [6]) was 18.3 min.

insulin [reference compound]: in data set [1] (setting [4]), the AAC was determined as 4.3 % glu. reduc. h; the “BA (bioavailability, based on changes in blood insulin level)” value came to 2.3%; the “PA (pharmaceutical availability, based on changes in blood glucose level)” value came out at 4.7%; the “increase in the blood insulin level (FIG. 8)” value is listed as “could be hardly observed”. Further, in data set [1] (setting [5]), the AUC was 6.4 μU · h./mL and the Tmax is listed as 10.8 min. In addition, the “blood insulin level (FIG. 1)” value in data set [2] is “hardly exhibited increase in the blood insulin level”. Also, the “bioavailability (BA) of insulin” value in data set [2] (vs subcutaneous insulin) worked out at 0.8%. The compound further displayed a bioavailability of insulin in data set [3] of 1.7%.

The values are drawn from patent US8895503B2, “Pharmaceutical composition for transnasal administration of peptide hormones or cytokines” (Toray Industries, Inc., priority 2008, dated 2014).
